In PubChem BioAssay AID1259407 (Chemical Carcinogenesis Research Information System (CCRIS), 2018):
Active and inactive are the calls of the source. How the calls were made is not given here.

Tested on: CCRIS mutagenicity, Ames/micronucleus/aberration tests
Assay: CCRIS mutagenicity studies
[1] = Test System: AMES SALMONELLA TYPHIMURIUM, Strain/Indicator: TA98, Metabolic Activation: NONE, Method: STANDARD PLATE
[2] = Test System: AMES SALMONELLA TYPHIMURIUM, Strain/Indicator: TA98, Metabolic Activation: RAT, LIVER, S-9, AROCLOR 1254, Method: STANDARD PLATE
[3] = Test System: AMES SALMONELLA TYPHIMURIUM, Strain/Indicator: TA100, Metabolic Activation: NONE, Method: STANDARD PLATE
[4] = Test System: AMES SALMONELLA TYPHIMURIUM, Strain/Indicator: TA100, Metabolic Activation: RAT, LIVER, S-9, AROCLOR 1254, Method: STANDARD PLATE
[5] = Test System: AMES SALMONELLA TYPHIMURIUM, Strain/Indicator: TA97, Metabolic Activation: NONE, Method: PREINCUBATION
[6] = Test System: AMES SALMONELLA TYPHIMURIUM, Strain/Indicator: TA98, Metabolic Activation: HAMSTER, LIVER, S-9, AROCLOR 1254 (10%), Method: PREINCUBATION
[7] = Test System: AMES SALMONELLA TYPHIMURIUM, Strain/Indicator: TA98, Metabolic Activation: NONE, Method: PREINCUBATION
[8] = Test System: AMES SALMONELLA TYPHIMURIUM, Strain/Indicator: TA98, Metabolic Activation: RAT, LIVER, S-9, AROCLOR 1254 (10%), Method: PREINCUBATION
[9] = Test System: AMES SALMONELLA TYPHIMURIUM, Strain/Indicator: TA100, Metabolic Activation: HAMSTER, LIVER, S-9, AROCLOR 1254 (10%), Method: PREINCUBATION
[10] = Test System: AMES SALMONELLA TYPHIMURIUM, Strain/Indicator: TA100, Metabolic Activation: NONE, Method: PREINCUBATION
[11] = Test System: AMES SALMONELLA TYPHIMURIUM, Strain/Indicator: TA100, Metabolic Activation: RAT, LIVER, S-9, AROCLOR 1254 (10%), Method: PREINCUBATION
[12] = Test System: AMES SALMONELLA TYPHIMURIUM, Strain/Indicator: TA1535, Metabolic Activation: HAMSTER, LIVER, S-9, AROCLOR 1254 (10%), Method: PREINCUBATION
[13] = Test System: AMES SALMONELLA TYPHIMURIUM, Strain/Indicator: TA1535, Metabolic Activation: NONE, Method: PREINCUBATION
[14] = Test System: AMES SALMONELLA TYPHIMURIUM, Strain/Indicator: TA1535, Metabolic Activation: RAT, LIVER, S-9, AROCLOR 1254 (10%), Method: PREINCUBATION
[15] = Test System: AMES SALMONELLA TYPHIMURIUM, Strain/Indicator: TA1535, Metabolic Activation: NONE, Method: STANDARD PLATE

Compound: Clc1cccnc1
- mutagenic call (Test System: AMES SALMONELLA TYPHIMURIUM, Strain/Indicator: TA97, Metabolic Activation: NONE, Method: STANDARD PLATE): inactive; negative
- mutagenic call (Test System: AMES SALMONELLA TYPHIMURIUM, Strain/Indicator: TA97, Metabolic Activation: RAT, LIVER, S-9, AROCLOR 1254, Method: STANDARD PLATE): inactive; negative
- mutagenic call [1]: inactive; negative
- mutagenic call [2]: inactive; negative
- mutagenic call [3]: inactive; negative
- mutagenic call [4]: inactive; negative
- mutagenic call (Test System: AMES SALMONELLA TYPHIMURIUM, Strain/Indicator: TA102, Metabolic Activation: NONE, Method: STANDARD PLATE): inactive; negative
- mutagenic call (Test System: AMES SALMONELLA TYPHIMURIUM, Strain/Indicator: TA102, Metabolic Activation: RAT, LIVER, S-9, AROCLOR 1254, Method: STANDARD PLATE): inactive; negative
- mutagenic call (Test System: MOUSE LYMPHOMA, Strain/Indicator: L5178Y (TK+/TK-), Metabolic Activation: NONE): active; positive
- mutagenic call (Test System: MOUSE LYMPHOMA, Strain/Indicator: L5178Y (TK+/TK-), Metabolic Activation: RAT, LIVER, S-9, AROCLOR 1254): active; positive

Compound: CNc1nncc2ccccc12
- mutagenic call [3]: active; positive
- mutagenic call (Test System: AMES SALMONELLA TYPHIMURIUM, Strain/Indicator: TA100, Metabolic Activation: RAT, LIVER, S-9, PHENOBARBITAL, Method: STANDARD PLATE): active; positive
- mutagenic call (Test System: UDS RAT HEPATOCYTES, Strain/Indicator: THY INCORP, Metabolic Activation: NONE, Method: AUTORADIOGRAPHY): active; positive
- mutagenic call (Test System: UDS RODENT HEPATOCYTES, Strain/Indicator: THY INCORP (NON-S-PHASE), Metabolic Activation: HOST-MEDIATED, Method: IN VIVO-IN VITRO): inactive; negative

Compound: CCOP(=O)=O.CCOP(=O)=O.CCOP(=O)=O.[Al+3]
- mutagenic call (End Point: IN VIVO MICRONUCLEUS, Test System: BONE MARROW POLYCHROMATIC ERYTHROCYTES, Species: MOUSE, Strain/Sex: SWISS/MALE, FEMALE, Route: IP 2X IN AQUEOUS SUSPENSION WITHIN 24 HR): active; positive

Compound: N#Cc1ccc(CO)cc1
- mutagenic call [3]: inactive; negative

Compound: CC(=O)Nc1ccccc1N
- mutagenic call (Test System: AMES SALMONELLA TYPHIMURIUM, Strain/Indicator: TA97, Metabolic Activation: HAMSTER, LIVER, S-9, AROCLOR 1254 (10%), Method: PREINCUBATION): active; positive
- mutagenic call [5]: active; positive
- mutagenic call (Test System: AMES SALMONELLA TYPHIMURIUM, Strain/Indicator: TA97, Metabolic Activation: RAT, LIVER, S-9, AROCLOR 1254 (10%), Method: PREINCUBATION): active; positive
- mutagenic call [6]: active; positive
- mutagenic call [7]: inactive; negative
- mutagenic call [8]: active; positive
- mutagenic call [9]: active; positive
- mutagenic call [10]: inactive; negative
- mutagenic call [11]: active; positive
- mutagenic call [12]: active; positive
- mutagenic call [13]: inactive; negative
- mutagenic call [14]: active; positive

Compound: O=C(N/N=C/c1ccc([N+](=O)[O-])o1)c1ccc(O)cc1
- mutagenic call (Test System: AMES SALMONELLA TYPHIMURIUM, Strain/Indicator: TA100(FR1), Metabolic Activation: NONE, Method: STANDARD PLATE): active; positive
- mutagenic call (Test System: AMES SALMONELLA TYPHIMURIUM, Strain/Indicator: TA100(FR1), Metabolic Activation: RAT, LIVER, S-9, PHENOBARBITAL AND 3-METHYLCHOLANTHRENE, Method: STANDARD PLATE): active; positive
- mutagenic call [3]: active; positive
- mutagenic call (Test System: AMES SALMONELLA TYPHIMURIUM, Strain/Indicator: TA100, Metabolic Activation: RAT, LIVER, S-9, PHENOBARBITAL AND 3-METHYLCHOLANTHRENE, Method: STANDARD PLATE): active; positive
- mutagenic call (Test System: CHINESE HAMSTER V-79, Strain/Indicator: V-79/6-THIOGUANINE, Metabolic Activation: NONE): inactive; negative
- mutagenic call (Test System: CHINESE HAMSTER V-79, Strain/Indicator: V-79/6-THIOGUANINE, Metabolic Activation: RAT, LIVER, HEPATOCYTES): inactive; negative
- mutagenic call (Test System: CHINESE HAMSTER V-79, Strain/Indicator: V-79/OUABAIN, Metabolic Activation: NONE): inactive; negative
- mutagenic call (Test System: CHINESE HAMSTER V-79, Strain/Indicator: V-79/OUABAIN, Metabolic Activation: RAT, LIVER, HEPATOCYTES): inactive; negative

Compound: O=c1ccn([C@@H]2O[C@H](COP(=O)(O)O)[C@@H](O)[C@H]2O)c(=O)[nH]1
- mutagenic call [5]: inactive; negative
- mutagenic call (Test System: AMES SALMONELLA TYPHIMURIUM, Strain/Indicator: TA97, Metabolic Activation: RAT, LIVER, S-9, AROCLOR 1254, Method: PREINCUBATION): inactive; negative
- mutagenic call (Test System: AMES SALMONELLA TYPHIMURIUM, Strain/Indicator: TA102, Metabolic Activation: NONE, Method: PREINCUBATION): inactive; negative
- mutagenic call (Test System: AMES SALMONELLA TYPHIMURIUM, Strain/Indicator: TA102, Metabolic Activation: RAT, LIVER, S-9, AROCLOR 1254, Method: PREINCUBATION): inactive; negative

Compound: CCC(=O)n1ncc(Cl)c(Cl)c1=O
- mutagenic call [1]: inactive; negative
- mutagenic call [2]: inactive; negative
- mutagenic call [3]: inactive; negative
- mutagenic call [4]: inactive; negative
- mutagenic call [15]: inactive; negative
- mutagenic call (Test System: AMES SALMONELLA TYPHIMURIUM, Strain/Indicator: TA1535, Metabolic Activation: RAT, LIVER, S-9, AROCLOR 1254, Method: STANDARD PLATE): inactive; negative
- mutagenic call (Test System: AMES SALMONELLA TYPHIMURIUM, Strain/Indicator: TA1537, Metabolic Activation: NONE, Method: STANDARD PLATE): inactive; negative
- mutagenic call (Test System: AMES SALMONELLA TYPHIMURIUM, Strain/Indicator: TA1537, Metabolic Activation: RAT, LIVER, S-9, AROCLOR 1254, Method: STANDARD PLATE): inactive; negative

Compound: c1ccc(-c2ccc(OCC3CO3)cc2)cc1 (stereo unspecified)
- mutagenic call [3]: active; positive
- mutagenic call [15]: active; positive

Compound: C=C(C#N)C(=O)OC
- mutagenic call [6]: inactive; negative
- mutagenic call [7]: inactive; negative
- mutagenic call [8]: inactive; negative
- mutagenic call [9]: active; positive
- mutagenic call [10]: active; positive
- mutagenic call (Test System: AMES SALMONELLA TYPHIMURIUM, Strain/Indicator: TA100, Metabolic Activation: NONE, Method: SPOT TEST): active; positive
- mutagenic call [3]: active; positive
- mutagenic call [11]: active; positive
- mutagenic call (Test System: AMES SALMONELLA TYPHIMURIUM, Strain/Indicator: TA100, Metabolic Activation: RAT, LIVER, S-9, AROCLOR 1254, Method: SPOT TEST): active; positive
- mutagenic call [4]: active; positive
- mutagenic call [12]: inactive; negative
- mutagenic call [13]: inactive; negative
- mutagenic call [14]: inactive; negative
- mutagenic call (Test System: AMES SALMONELLA TYPHIMURIUM, Strain/Indicator: TA1537, Metabolic Activation: HAMSTER, LIVER, S-9, AROCLOR 1254 (10%), Method: PREINCUBATION): inactive; negative
- mutagenic call (Test System: AMES SALMONELLA TYPHIMURIUM, Strain/Indicator: TA1537, Metabolic Activation: NONE, Method: PREINCUBATION): inactive; negative
- mutagenic call (Test System: AMES SALMONELLA TYPHIMURIUM, Strain/Indicator: TA1537, Metabolic Activation: RAT, LIVER, S-9, AROCLOR 1254 (10%), Method: PREINCUBATION): inactive; negative
